For assay [1], the target named is T1, Ribosyldihydronicotinamide dehydrogenase [quinone] (Homo sapiens) (UniProt P16083).
T1 sequence (whole entry): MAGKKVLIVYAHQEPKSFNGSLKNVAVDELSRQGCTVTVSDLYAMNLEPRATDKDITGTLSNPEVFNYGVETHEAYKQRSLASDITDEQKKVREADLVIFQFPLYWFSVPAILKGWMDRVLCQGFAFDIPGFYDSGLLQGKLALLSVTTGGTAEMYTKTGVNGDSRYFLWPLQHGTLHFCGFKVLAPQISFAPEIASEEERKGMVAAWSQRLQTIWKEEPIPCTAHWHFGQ
The assay is described as follows: NQO2 SGC Tm panel (DSF). The settings on record: for ΔTm: Compound concentration 10.0 uM.

Assay [2] addresses T2, Serine/threonine-protein kinase haspin (Homo sapiens) (UniProt Q8TF76).
T2 sequence (whole entry): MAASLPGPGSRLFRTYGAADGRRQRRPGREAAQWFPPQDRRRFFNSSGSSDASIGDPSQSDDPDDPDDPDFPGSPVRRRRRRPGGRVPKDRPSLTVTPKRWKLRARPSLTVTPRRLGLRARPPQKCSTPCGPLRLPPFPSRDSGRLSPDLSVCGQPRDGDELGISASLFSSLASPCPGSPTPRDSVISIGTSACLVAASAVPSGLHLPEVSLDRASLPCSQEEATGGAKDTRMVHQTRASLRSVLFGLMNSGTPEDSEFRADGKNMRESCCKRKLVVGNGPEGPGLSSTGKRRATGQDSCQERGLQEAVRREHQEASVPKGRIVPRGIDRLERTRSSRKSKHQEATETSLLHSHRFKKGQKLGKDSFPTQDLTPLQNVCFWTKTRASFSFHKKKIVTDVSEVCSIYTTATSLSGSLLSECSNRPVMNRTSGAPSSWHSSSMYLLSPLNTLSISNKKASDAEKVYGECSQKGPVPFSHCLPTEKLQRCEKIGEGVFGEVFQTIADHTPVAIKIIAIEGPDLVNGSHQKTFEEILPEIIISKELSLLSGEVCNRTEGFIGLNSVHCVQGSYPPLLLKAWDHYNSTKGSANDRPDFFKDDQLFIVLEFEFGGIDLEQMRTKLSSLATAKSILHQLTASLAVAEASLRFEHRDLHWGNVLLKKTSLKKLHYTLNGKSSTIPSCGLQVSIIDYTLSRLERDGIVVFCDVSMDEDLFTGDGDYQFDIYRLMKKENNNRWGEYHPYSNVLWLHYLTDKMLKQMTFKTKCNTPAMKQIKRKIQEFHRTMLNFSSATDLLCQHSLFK
The assay is described as follows: GSG2 SGC Tm panel (DSF). The conditions noted are these: for ΔTm: Compound concentration 10.0 uM.

The target of assay [3] is T3, Mitogen-activated protein kinase 15 (Homo sapiens) (UniProt Q8TD08).
T3 sequence (whole entry): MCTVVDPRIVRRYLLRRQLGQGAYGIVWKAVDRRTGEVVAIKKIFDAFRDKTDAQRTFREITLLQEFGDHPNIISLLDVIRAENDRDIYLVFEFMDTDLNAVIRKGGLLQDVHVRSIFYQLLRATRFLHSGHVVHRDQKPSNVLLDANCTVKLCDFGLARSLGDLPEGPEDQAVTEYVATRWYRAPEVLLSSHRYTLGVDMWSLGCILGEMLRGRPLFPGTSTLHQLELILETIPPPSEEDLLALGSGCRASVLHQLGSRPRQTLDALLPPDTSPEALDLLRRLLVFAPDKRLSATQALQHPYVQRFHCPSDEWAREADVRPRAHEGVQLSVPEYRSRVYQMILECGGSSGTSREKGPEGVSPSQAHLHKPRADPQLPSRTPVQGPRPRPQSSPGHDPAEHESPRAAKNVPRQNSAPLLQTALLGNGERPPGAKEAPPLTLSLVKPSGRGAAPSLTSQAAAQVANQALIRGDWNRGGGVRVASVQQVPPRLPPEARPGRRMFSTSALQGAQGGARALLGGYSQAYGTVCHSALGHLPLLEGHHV
The assay is described as follows: MAPK15 SGC Tm panel (DSF). The conditions noted are these: for ΔTm: Compound concentration 10.0 uM.

Assay [4] addresses 5-hydroxytryptamine receptor 2A (Homo sapiens) (UniProt P28223). The conditions noted are these: Compound concentration 10.0 uM.
Assay [5] has as its target T4, Serine/threonine-protein kinase Nek1 (Homo sapiens) (UniProt Q96PY6).
T4 sequence (whole entry): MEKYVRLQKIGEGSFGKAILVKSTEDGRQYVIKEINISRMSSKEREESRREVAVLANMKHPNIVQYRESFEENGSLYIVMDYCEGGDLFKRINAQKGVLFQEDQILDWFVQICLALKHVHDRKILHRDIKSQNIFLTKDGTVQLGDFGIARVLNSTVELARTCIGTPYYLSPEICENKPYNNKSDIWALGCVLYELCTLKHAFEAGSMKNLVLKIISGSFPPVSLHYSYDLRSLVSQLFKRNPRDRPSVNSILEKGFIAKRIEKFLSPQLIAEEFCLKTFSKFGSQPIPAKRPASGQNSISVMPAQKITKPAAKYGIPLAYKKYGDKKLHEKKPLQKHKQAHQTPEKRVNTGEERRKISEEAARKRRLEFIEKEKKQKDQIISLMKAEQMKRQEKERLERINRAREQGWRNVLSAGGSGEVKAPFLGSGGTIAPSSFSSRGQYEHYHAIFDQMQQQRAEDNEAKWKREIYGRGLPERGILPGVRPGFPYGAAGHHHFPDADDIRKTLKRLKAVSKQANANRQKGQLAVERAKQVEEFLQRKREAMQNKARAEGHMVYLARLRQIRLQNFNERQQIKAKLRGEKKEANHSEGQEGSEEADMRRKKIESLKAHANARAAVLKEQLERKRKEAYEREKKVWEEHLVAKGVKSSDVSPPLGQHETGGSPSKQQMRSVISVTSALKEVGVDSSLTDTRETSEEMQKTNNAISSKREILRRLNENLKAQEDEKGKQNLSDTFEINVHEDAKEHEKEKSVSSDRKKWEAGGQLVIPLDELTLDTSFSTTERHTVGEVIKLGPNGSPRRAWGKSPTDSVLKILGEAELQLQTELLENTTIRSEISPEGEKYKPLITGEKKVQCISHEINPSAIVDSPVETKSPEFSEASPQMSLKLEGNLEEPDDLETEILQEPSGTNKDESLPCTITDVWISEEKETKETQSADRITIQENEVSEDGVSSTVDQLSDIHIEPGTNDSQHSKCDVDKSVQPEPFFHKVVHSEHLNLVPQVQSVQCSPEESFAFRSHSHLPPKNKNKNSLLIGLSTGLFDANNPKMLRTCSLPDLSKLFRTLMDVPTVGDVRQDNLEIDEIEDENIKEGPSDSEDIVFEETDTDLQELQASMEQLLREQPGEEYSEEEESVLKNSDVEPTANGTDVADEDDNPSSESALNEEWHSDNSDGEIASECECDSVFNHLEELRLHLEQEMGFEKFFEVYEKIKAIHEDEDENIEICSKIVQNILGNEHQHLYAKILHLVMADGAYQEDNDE
The assay is described as follows: NEK1 SGC Tm panel (DSF). The settings on record: for ΔTm: Compound concentration 10.0 uM.

For assay [6], the target named is G protein-coupled receptor kinase 5 (Homo sapiens) (UniProt P34947). The assay can be described thus: GPRK5 SGC Tm panel (DSF). The settings on record: for ΔTm: Compound concentration 10.0 uM.
Sequence of G protein-coupled receptor kinase 5 (Homo sapiens) (P34947 whole entry, looked up): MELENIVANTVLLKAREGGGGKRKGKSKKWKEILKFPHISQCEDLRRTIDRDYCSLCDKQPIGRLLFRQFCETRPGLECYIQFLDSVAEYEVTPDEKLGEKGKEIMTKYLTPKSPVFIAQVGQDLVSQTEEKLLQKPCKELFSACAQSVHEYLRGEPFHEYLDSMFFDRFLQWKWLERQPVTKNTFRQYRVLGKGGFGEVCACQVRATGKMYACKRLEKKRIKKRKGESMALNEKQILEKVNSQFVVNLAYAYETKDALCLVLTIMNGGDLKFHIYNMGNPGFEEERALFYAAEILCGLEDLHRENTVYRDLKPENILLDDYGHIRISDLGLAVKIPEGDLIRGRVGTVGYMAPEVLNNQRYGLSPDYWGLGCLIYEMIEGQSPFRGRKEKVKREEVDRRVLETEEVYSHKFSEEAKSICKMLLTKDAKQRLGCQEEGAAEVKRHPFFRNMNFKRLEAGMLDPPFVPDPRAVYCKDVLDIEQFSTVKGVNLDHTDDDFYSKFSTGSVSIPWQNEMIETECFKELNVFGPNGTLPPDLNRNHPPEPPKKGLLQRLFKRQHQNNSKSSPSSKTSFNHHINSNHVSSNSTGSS

Sequence of 5-hydroxytryptamine receptor 2A (Homo sapiens) (P28223 whole entry): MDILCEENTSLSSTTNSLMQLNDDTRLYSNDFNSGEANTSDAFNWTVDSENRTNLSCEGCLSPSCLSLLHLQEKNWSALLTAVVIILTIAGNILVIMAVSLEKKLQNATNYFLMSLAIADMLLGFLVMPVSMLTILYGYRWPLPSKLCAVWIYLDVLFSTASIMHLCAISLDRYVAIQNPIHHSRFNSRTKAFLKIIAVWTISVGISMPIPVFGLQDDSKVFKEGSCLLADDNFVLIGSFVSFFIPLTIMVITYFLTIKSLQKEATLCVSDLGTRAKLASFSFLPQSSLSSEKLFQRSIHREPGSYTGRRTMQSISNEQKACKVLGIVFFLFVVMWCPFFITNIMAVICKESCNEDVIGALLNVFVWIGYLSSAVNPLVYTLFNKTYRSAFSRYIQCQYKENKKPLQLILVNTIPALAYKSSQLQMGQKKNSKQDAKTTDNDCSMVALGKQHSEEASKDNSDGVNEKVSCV

Regarding `C[C@H](NC(=O)c1cn(C2(C#N)CC2)cn1)C(=O)Nc1nc(-c2cccc(-c3ccn(C)n3)c2)cs1`, the delta Tm Staurosporine positive control was -2.91 in assay [1]; 7.11 in assay [2]; 15 in assay [3]; -0.578 in assay [5]; 6.82 in assay [6]. The ΔTm in assay [1] was -0.586; in assay [2], -1.11; in assay [3] it was 1.05; in assay [5] it was -0.482; in assay [6] it was 0.226. Further, the inhibition in assay [4] was -5.53%.
In the case of `COC[C@H](NC(=O)c1ccn(S(C)(=O)=O)c1)C(=O)Nc1nc(-c2cccc(-c3ccn(C)n3)c2)cs1`, the delta Tm Staurosporine positive control was -2.91 in assay [1]; 7.11 in assay [2]; 15 in assay [3]; -0.578 in assay [5]; 6.82 in assay [6]. Besides, the ΔTm was -0.772 in assay [1]; -0.207 in assay [2]; 0.94 in assay [3]; -0.226 in assay [5]; 0.544 in assay [6]. Further, the inhibition in assay [4] was 4.18%.

Usually inhibition stands for the change of the read-out against control, counted positive when it falls.

Values taken from ChEMBL document CHEMBL5303766, “Data for DCP probe FHT-2344” (2022).
